One compound from paper PMC11237586, “4′-Fluorouridine inhibits alphavirus replication and infection in vitro and in vivo” (mBio, 2024) can be followed below.

Assay [1] concerns the target CHIKV nsP4 (RdRp) with SFV P123, mixed trans-replicase (Chikungunya virus strain S27-African prototype, UniProt Q8JUX6). As to the kind of experiment: cell-based.
Assay [2] addresses SFV nsP4 (RdRp) with SFV P123, trans-replicase (Semliki Forest virus, UniProt P08411). As to the kind of experiment: trans-replicase Gaussia luciferase reporter assay in transfected U-2 OS cells. The class given is cell-based.

Chain of SFV nsP4 (RdRp) with SFV P123, trans-replicase (P08411 1-1818): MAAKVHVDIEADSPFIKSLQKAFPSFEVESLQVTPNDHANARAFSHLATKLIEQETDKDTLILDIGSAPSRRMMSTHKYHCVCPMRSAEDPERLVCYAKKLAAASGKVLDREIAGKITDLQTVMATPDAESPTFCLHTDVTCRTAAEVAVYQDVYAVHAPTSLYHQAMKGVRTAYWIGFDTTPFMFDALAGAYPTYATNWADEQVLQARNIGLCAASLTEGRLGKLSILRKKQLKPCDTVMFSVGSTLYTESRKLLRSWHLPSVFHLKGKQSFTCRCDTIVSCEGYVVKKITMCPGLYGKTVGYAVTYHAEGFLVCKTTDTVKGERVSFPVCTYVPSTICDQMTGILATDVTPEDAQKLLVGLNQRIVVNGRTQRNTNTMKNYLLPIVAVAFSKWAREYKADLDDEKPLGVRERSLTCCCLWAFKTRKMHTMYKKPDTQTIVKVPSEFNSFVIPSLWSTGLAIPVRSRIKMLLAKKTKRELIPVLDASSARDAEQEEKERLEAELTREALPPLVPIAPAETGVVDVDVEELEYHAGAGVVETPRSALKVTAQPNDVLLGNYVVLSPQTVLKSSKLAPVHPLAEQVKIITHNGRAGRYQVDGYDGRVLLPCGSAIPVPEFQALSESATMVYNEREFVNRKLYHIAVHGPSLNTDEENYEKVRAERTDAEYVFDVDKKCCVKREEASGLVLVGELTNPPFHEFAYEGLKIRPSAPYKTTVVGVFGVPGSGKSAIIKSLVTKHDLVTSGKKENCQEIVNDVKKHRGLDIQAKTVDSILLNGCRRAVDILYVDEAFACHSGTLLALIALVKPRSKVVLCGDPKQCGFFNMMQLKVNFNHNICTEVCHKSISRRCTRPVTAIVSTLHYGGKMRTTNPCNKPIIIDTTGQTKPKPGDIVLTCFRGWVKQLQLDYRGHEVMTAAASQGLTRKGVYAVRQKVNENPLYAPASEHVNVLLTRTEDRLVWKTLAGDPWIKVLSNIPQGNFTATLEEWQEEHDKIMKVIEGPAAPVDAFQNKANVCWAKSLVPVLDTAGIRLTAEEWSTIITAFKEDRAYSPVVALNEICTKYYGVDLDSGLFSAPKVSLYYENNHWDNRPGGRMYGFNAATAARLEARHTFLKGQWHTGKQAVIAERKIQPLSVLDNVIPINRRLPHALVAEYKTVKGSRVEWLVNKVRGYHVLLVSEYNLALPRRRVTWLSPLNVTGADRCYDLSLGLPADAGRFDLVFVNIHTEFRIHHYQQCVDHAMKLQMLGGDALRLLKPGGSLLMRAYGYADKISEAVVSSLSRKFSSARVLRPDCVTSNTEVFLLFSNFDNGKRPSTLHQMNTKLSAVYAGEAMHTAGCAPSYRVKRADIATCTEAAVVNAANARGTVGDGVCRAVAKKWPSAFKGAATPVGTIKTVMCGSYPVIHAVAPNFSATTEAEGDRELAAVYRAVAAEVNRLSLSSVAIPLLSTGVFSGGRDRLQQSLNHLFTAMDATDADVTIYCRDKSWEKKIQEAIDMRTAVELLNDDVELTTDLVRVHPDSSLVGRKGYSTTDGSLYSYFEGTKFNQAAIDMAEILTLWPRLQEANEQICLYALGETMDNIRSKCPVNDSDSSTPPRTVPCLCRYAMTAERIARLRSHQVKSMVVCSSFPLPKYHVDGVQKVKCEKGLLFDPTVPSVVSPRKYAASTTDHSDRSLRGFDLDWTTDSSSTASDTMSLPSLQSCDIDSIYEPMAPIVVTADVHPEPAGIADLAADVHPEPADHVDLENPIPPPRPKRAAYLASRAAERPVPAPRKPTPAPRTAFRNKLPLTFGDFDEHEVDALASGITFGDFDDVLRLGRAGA
Chain of SFV nsP4 (RdRp) with SFV P123, trans-replicase (P08411 1819-2431): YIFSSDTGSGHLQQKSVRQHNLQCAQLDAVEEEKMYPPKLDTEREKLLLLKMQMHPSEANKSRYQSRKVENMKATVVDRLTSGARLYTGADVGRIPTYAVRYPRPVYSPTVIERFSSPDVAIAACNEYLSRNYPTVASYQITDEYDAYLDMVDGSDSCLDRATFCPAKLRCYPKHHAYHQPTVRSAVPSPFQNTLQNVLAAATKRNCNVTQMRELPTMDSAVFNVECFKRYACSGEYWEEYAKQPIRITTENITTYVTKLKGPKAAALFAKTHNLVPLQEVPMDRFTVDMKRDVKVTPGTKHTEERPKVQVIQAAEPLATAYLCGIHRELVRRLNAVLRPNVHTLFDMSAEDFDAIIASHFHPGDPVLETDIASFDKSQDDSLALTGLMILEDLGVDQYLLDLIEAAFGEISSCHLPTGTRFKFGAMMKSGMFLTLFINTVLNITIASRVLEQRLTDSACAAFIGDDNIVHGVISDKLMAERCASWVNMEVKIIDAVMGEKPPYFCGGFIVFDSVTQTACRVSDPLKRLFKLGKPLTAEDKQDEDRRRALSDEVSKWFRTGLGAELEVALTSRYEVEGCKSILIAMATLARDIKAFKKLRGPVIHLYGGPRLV
Chain of CHIKV nsP4 (RdRp) with SFV P123, mixed trans-replicase (Q8JUX6 1864-2474): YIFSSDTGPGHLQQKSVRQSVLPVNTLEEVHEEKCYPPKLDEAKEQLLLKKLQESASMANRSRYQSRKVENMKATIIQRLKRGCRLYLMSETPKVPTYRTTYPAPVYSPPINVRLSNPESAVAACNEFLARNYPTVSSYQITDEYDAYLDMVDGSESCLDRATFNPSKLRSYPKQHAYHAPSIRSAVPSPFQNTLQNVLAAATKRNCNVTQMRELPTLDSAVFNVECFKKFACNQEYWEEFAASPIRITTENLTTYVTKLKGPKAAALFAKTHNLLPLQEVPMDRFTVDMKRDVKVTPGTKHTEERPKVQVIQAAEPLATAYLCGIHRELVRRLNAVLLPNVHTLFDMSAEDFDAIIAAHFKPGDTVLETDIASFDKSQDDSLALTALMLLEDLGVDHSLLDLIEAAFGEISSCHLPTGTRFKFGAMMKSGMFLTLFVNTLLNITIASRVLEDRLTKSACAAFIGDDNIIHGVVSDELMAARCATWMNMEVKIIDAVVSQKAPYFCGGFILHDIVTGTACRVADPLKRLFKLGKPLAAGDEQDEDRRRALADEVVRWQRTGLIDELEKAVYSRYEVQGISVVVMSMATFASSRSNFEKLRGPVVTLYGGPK
Chain of CHIKV nsP4 (RdRp) with SFV P123, mixed trans-replicase (P08411 1-1818, further chain): as the sequence (P08411 1-1818) above

Regarding `O=c1ccn([C@@H]2O[C@](F)(CO)[C@@H](O)[C@H]2O)c(=O)[nH]1` [4′-fluorouridine], the EC50 in assay [1] is 640 nM; in assay [2], 2100 nM.

Broadly, the EC50 is the concentration at which the effect is half-maximal. Low readings indicate greater potency, high ones weaker potency.
